Laboratory results published in patent publication US7446199B2, “Compositions useful as inhibitors of protein kinases” (Vertex Pharmaceuticals Incorporated, priority 2003, dated 2008).

What was measured:
[1] = target: SYK (Homo sapiens, UniProt P43405); test: SYK enzyme assay, coupled enzyme assay; format: biochemical; conditions: 200 μM ATP, 4 μM poly Gly-Tyr peptide, 30° C.
Method in brief: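 Pyruvate kinase/lactate dehydrogenase-coupled NADH assay in HEPES pH 7.5 with MgCl2, NaCl, DTT and 1.5% DMSO, using 200 μM ATP, 4 μM poly Gly-Tyr and 25 nM enzyme. Compound at 30 μM final was preincubated ~10 min at 30 °C. Rates were read over 5 min at 30 °C and Ki derived.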

[2] = target: T1, TAK1A-TAB fusion protein (Homo sapiens, UniProt O43318); test: TAK-1 inhibition assay, radiometric filter binding assay; format: biochemical; conditions: 50 μM ATP, 12 μM bovine myelin basic protein, 20 nM TAK1A-TAB fusion protein
T1 construct: using 20 nM TAK1A-TAB fusion protein
T1 sequence (O43318 with tags, fused parts or gaps isoform O43318-2 limits assumed): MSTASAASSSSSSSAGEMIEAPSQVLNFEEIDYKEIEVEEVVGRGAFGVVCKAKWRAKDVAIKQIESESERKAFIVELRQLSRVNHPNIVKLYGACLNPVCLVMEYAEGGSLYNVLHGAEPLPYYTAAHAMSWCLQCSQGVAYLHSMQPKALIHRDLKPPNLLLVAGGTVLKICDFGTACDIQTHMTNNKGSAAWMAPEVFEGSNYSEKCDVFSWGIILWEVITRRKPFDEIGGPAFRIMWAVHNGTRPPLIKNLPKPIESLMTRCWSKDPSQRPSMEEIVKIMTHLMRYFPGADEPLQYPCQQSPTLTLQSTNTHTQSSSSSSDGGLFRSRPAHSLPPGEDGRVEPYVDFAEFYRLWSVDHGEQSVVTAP
Method: Compounds were screened for their ability to inhibit TAK1A kinase activity using a radiometric filter binding assay. Reactions were carried out in a solution containing Buffer A (100 mM HEPES (pH 7.5), 10 mM MgCl2), 25 mM NaCl, 2 mM DTT, and 1.5% DMSO. Final substrate concentrations in the assay were 50 μM ATP (a mixture of unlabeled ATP (Sigma Chemicals, St Louis, Mo.) and ^33P-labeled ATP (PerkinElmer Life Sciences, Boston, Mass.) for a final specific activity of 50 Ci/mol), and 12 μM bovine myelin basic protein (MBP, Vertex Pharmaceuticals, Cambridge, Mass.). Reactions were carried out at ambient temperature (˜20° C.) using 20 nM TAK1A-TAB fusion protein. Under these conditions the extent of reaction is linear with time for a period of 2 hours.
A test compound of the present invention (1 μL in DMSO) was combined with ATP and Buffer A in a final volume of 47 μL in a 96 well plate. Typically, a 6 point titration was conducted by preparing serial dilutions (from 10 mM compound stocks) with DMSO of the test compounds of the present invention in daughter plates, for final concentrations spanning 0.046 μM to 3.73 μM. The reaction was initiated by the addition of 20 μl of an enzyme stock solution consisting of TAK1A-TAB fusion (described by Sugita, T. et al. in Biochem. Biophys. Res. Comm. 2002, 297, 1277-1281), MBP, Buffer A, NaCl, and DTT. The reaction was allowed to proceed for two hours at ambient temperature, then quenched with an equal volume of 10 mM unlabeled ATP in 10% trichloroacetic acid. A 110 μL aliquot of the quenched reaction was transferred to a Multiscreen PH filter plate (Millipore, Billerica, Mass.) and allowed to incubate at ambient temperature overnight (typically 16-20 hours). Following incubation the filter plates were washed with 3×150 μL aliquots of 5% trichloroacetic acid using a modified Biotek Elx405 plate washer. A 70 μL aliquot of Microscint 20 scintillation fluid (PerkinElmer) was added to each well, and the plate was then sealed and read on a TopCount NXT microplate scintillation counter (PerkinElmer). The Ki values were determined from the rate data as a function of inhibitor concentration.

Cc1noc(-c2c[nH]c3ncc(-c4ccc(N5CCN(C)CC5)cc4)cc23)c1-c1cccc(F)c1F [Compound 135, 3-[4-(2,3-Difluoro-phenyl)-3-methyl-isoxazol-5-yl]-5-[4-(4-methyl-piperazin-1-yl)-phenyl]-1H-pyrrolo[2,3-b]pyridine]
Ki [1]: 0.2 to 1 µM
Ki [2]: < 0.2 µM
